Results on 21 molecules are retold here after ChEMBL document CHEMBL2040722, “Synthesis and anti-breast cancer activity of new indolylquinone derivatives” (Eur J Med Chem, 2012).

≈ marks a conversion by molar mass, not a printed value. Calls of active or inactive are those of the source. The calls are words filed in the database; no cut-off is given here.

Holding throughout (type): functional, cell-based
Experiment [1] has as its system MCF7. The experiment in a line: Antiproliferative activity against human MCF7 cells after 48 hrs by CCK-8 assay. The conditions noted are these: MCF7, 48 h. A general note: Formazan colour is commonly taken as a measure of viable cells.
For experiment [2], the system named is MDA-MB-231. Put plainly: Antiproliferative activity against human MDA-MB-231 cells after 48 hrs by CCK-8 assay. The conditions noted are these: MDA-MB-231, 48 h.
Experiment [3] relates to MCF7. Put plainly: Induction of apoptosis in human MCF7 cells after 24 hrs by annexin V-FITC and PI-based fluorescence assay.
Experiment [4] has as its system MCF7. The experiment in a line: Induction of apoptosis in human MCF7 cells assessed as early apoptosis at 0.3 ug/ml after 24 hrs by annexin V-FITC and PI-based fluorescence assay.
Experiment [5] relates to MCF7. The experiment in a line: Induction of apoptosis in human MCF7 cells assessed as late apoptosis at 0.9 ug/ml after 24 hrs by annexin V-FITC and PI-based fluorescence assay.
Experiment [6] deals with MCF7. The experiment in a line: Induction of apoptosis in human MCF7 cells assessed as late apoptosis at 0.3 ug/ml after 24 hrs by annexin V-FITC and PI-based fluorescence assay.
The test system of experiment [7] is MDA-MB-231. Put plainly: Induction of apoptosis in human MDA-MB-231 cells after 24 hrs by annexin V-FITC and PI-based fluorescence assay.
In experiment [8] the test system is MCF7. The experiment in a line: Induction of apoptosis in human MCF7 cells assessed as early apoptosis at 0.9 ug/ml after 24 hrs by annexin V-FITC and PI-based fluorescence assay.
Experiment [9] deals with MDA-MB-231. The experiment in a line: Induction of apoptosis in human MDA-MB-231 cells at 0.4 ug/ml after 24 hrs by annexin V-FITC and PI-based fluorescence assay.
For experiment [10], the system named is MDA-MB-231. The experiment in a line: Induction of apoptosis in human MDA-MB-231 cells at 1.25 ug/ml after 24 hrs by annexin V-FITC and PI-based fluorescence assay.

On to `Cc1ccc(-c2[nH]c3ccccc3c2C2=C(Br)C(=O)C(Br)=C(c3c(C)[nH]c4ccccc34)C2=O)cc1`, for which the IC50 (as a rule, the point on the concentration scale where inhibition reaches its midpoint) was found to be 6.85 µg/mL (≈ 11.4 µM) in the experiment with MCF7 [1] and 5.89 µg/mL (≈ 9.81 µM) in the experiment with MDA-MB-231 [2].
With `Cc1[nH]c2ccccc2c1C1=C(Cl)C(=O)C(Cl)=C(c2c(-c3ccccc3)[nH]c3ccccc23)C1=O`, the IC50 was found to be 2.58 µg/mL (≈ 5.19 µM) with MCF7 [1] and 5.27 µg/mL (≈ 10.6 µM) with MDA-MB-231 [2].
`Cc1ccc(-c2[nH]c3ccccc3c2C2=C(Cl)C(=O)C(c3c(C)[nH]c4ccccc34)=C(Cl)C2=O)cc1`: the IC50 with MCF7 [1] amounted to 2.8 µg/mL (≈ 5.48 µM); with MDA-MB-231 [2] it was 4.21 µg/mL (≈ 8.23 µM).
Consider `COc1ccc2[nH]c(C)c(C3=C(Br)C(=O)C(Br)=C(c4c(C)[nH]c5ccc(OC)cc45)C3=O)c2c1`, for which the IC50 in the experiment on MCF7 [1] amounted to 4.72 µg/mL (≈ 8.08 µM); in the experiment with MDA-MB-231 [2] it was 8.43 µg/mL (≈ 14.4 µM).
With `Cc1[nH]c2ccccc2c1C1=C(Br)C(=O)C(Br)=C(c2c(-c3ccccc3)[nH]c3ccccc23)C1=O`, the half-inhibitory concentration (IC50) with MCF7 [1] came out at 3.02 µg/mL (≈ 5.15 µM); in the experiment with MDA-MB-231 [2], 4.33 µg/mL (≈ 7.39 µM).
Regarding `COc1ccc2[nH]c(C)c(C3=C(Br)C(=O)C(c4c(C)[nH]c5ccccc45)=C(Br)C3=O)c2c1`, the figures for the 50% inhibitory concentration (IC50) in the experiment with MCF7 [1] and with MDA-MB-231 [2] were > 25 µg/mL and > 10 µg/mL, respectively.
On the same counts, the results for `COc1ccc2[nH]c(C)c(C3=C(Cl)C(=O)C(Cl)=C(c4c(-c5ccc(C)cc5)[nH]c5ccccc45)C3=O)c2c1` are 2.31 µg/mL (≈ 4.27 µM) and 6.04 µg/mL (≈ 11.2 µM).
`Cc1ccc(-c2[nH]c3ccccc3c2C2=C(Cl)C(=O)C(Cl)=C(c3c(C)[nH]c4ccccc34)C2=O)cc1`: the IC50 worked out at 2.88 µg/mL (≈ 5.63 µM) in the experiment with MCF7 [1] and 5.77 µg/mL (≈ 11.3 µM) in the experiment with MDA-MB-231 [2].
On to `Cc1[nH]c2ccccc2c1C1=C(Cl)C(=O)C(c2c(-c3ccccc3)[nH]c3ccccc23)=C(Cl)C1=O`, for which the Activity entry with MCF7 [3] and with MDA-MB-231 [7] was “Dose-dependent effect” in each case. For the same molecule, the outcome in the experiment on MCF7 [4], in the experiment with MCF7 [5], in the experiment with MCF7 [6] and with MCF7 [8] was Active. Further, the half-maximal inhibitory concentration (IC50) is 2.29 µg/mL (≈ 4.6 µM) in the experiment on MCF7 [1] and 4.46 µg/mL (≈ 8.97 µM) in the experiment with MDA-MB-231 [2].
As for `Cc1ccc(-c2[nH]c3ccccc3c2C2=C(Br)C(=O)C(c3c(C)[nH]c4ccccc34)=C(Br)C2=O)cc1`, the IC50 in the experiment on MCF7 [1] amounted to 3.25 µg/mL (≈ 5.41 µM); in the experiment with MDA-MB-231 [2], 6.67 µg/mL (≈ 11.1 µM).
For `COc1ccc2[nH]c(C)c(C3=C(Br)C(=O)C(Br)=C(Br)C3=O)c2c1` the same measures were > 25 µg/mL and > 10 µg/mL.
Turning to `Cc1[nH]c2ccccc2c1C1=C(Br)C(=O)C(c2c(-c3ccccc3)[nH]c3ccccc23)=C(Br)C1=O`, the IC50 in the experiment with MCF7 [1] was 3.02 µg/mL (≈ 5.15 µM); with MDA-MB-231 [2], 5.64 µg/mL (≈ 9.62 µM).
Regarding `COc1ccc2[nH]c(C)c(C3=C(Br)C(=O)C(Br)=C(c4c(-c5ccccc5)[nH]c5ccccc45)C3=O)c2c1`, the concentration for half-maximal inhibition (IC50) in the experiment with MCF7 [1] came to 3.38 µg/mL (≈ 5.48 µM); with MDA-MB-231 [2], 7.67 µg/mL (≈ 12.4 µM).
In the experiment on MDA-MB-231 [2], `COc1cccc2c1C(=O)c1c(O)c3c(c(O)c1C2=O)C[C@@](O)(C(=O)CO)C[C@@H]3O[C@H]1C[C@H](N)[C@H](O)[C@H](C)O1` [DOXORUBICIN] registered a concentration for half-maximal inhibition (IC50) of 0.2 µg/mL (≈ 0.368 µM).
As for `COc1ccc2[nH]c(C)c(C3=C(Br)C(=O)C(c4c(-c5ccc(C)cc5)[nH]c5ccccc45)=C(Br)C3=O)c2c1`, the Activity result in the experiment on MCF7 [3] and with MDA-MB-231 [7] was “Dose-dependent effect” each time. Further, the IC50 with MCF7 [1] is 2.56 µg/mL (≈ 4.06 µM); with MDA-MB-231 [2] it was 3.99 µg/mL (≈ 6.33 µM). The outcome in the experiment with MDA-MB-231 [9] and in the experiment with MDA-MB-231 [10] was Active.
Turning to `Cc1[nH]c2ccccc2c1C1=C(Br)C(=O)C(c2c(C)[nH]c3ccccc23)=C(Br)C1=O`, the IC50 is 7 µg/mL (≈ 13.4 µM) with MCF7 [1] and 5.55 µg/mL (≈ 10.6 µM) in the experiment with MDA-MB-231 [2].
As to `COc1ccc2[nH]c(C)c(C3=C(Cl)C(=O)C(c4c(-c5ccc(C)cc5)[nH]c5ccccc45)=C(Cl)C3=O)c2c1`, the IC50 turned out to be 3.11 µg/mL (≈ 5.74 µM) with MCF7 [1] and 4.15 µg/mL (≈ 7.66 µM) with MDA-MB-231 [2].
On the same counts, the results for `O=C1C(Cl)=C(Cl)C(=O)C(c2c(-c3ccccc3)[nH]c3ccccc23)=C1Cl` are > 25 µg/mL and 34.9 µg/mL (≈ 86.8 µM).
As for `Cc1[nH]c2ccccc2c1C1=C(Br)C(=O)C(Br)=C(c2c(C)[nH]c3ccccc23)C1=O`, the values for the IC50 in the experiment with MCF7 [1] and with MDA-MB-231 [2] were 8.33 µg/mL (≈ 15.9 µM) and 4.76 µg/mL (≈ 9.08 µM), respectively.
In the case of `COc1ccc2[nH]c(C)c(C3=C(Br)C(=O)C(c4c(-c5ccccc5)[nH]c5ccccc45)=C(Br)C3=O)c2c1`, the half-inhibitory concentration (IC50) turned out to be 2.57 µg/mL (≈ 4.17 µM) with MCF7 [1] and 5.02 µg/mL (≈ 8.15 µM) with MDA-MB-231 [2].
On the same counts, the results for `Cc1ccc(-c2[nH]c3ccccc3c2C2=C(Br)C(=O)C(Br)=C(Br)C2=O)cc1` are > 25 µg/mL and 21.6 µg/mL (≈ 39.2 µM).
